Source: patent US9284283B2, “Macrocyclic compounds for modulating IL-17” (ENSEMBLE THERAPEUTICS CORPORATION, priority 2012, dated 2016)

What was measured:
IL17A = molecular target: T1, IL17A (Homo sapiens, UniProt Q16552); assay: Surface Plasmon Resonance (SPR) analysis of compound interactions with IL17A; settings: SPR binding to IL17A
T1 sequence (Q16552 24-155): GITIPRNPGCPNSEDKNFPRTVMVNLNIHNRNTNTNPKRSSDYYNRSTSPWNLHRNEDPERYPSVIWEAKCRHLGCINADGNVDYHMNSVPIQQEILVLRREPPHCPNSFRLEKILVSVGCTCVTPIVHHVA
Summary of the method: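 His-tagged IL17A captured on a Ni-NTA chip; five 2- or 3-fold compound dilutions from 50 μM injected for 180 s, 120 s dissociation, in HEPES-saline buffer with 0.5% DMSO. Baseline-subtracted sensorgrams fitted 1:1 for ka, kd and KD; Kd also derived from binding extent per concentration.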

[1] = system: IL-17-induced GROα secretion from HT-29 cells; assay: HT-29 cellular assay (IL-17-induced GROα secretion); type: cell-based; settings: Homo sapiens
Procedure: To test the ability of a compound of the invention to neutralize or antagonize IL-17 bioactivity, the following cell-based assay was used. IL-17 can stimulate epithelial cells and other cells to secrete GROα. The ability of a compound of the invention to neutralize IL-17-induced GROα secretion from the human colorectal adenocarcinoma epithelial cell line HT-29 is tested in this assay.
HT-29 cells (human colorectal adenocarcinoma epithelial cells, ATCC #HTB-38), were maintained in culture/assay medium in tissue culture-treated flasks using standard techniques. HT-29 cells were grown in tissue culture flasks until they were 50-80% confluent on the day before the assay. The day before the assay, the cells were detached from the culture flasks with trypsin+EDTA. The trypsin was inactivated with complete assay medium. HT-29 cells were then centrifuged at 500×g for 5 minutes at room temperature. The cell pellet was then re-suspended in Defined Keratinocyte SFM (Invitrogen #10766019)+10% FCS and 50,000 HT-29 cells (in 100 μl) were added to each treatment well of the 96-well plates. The 96-well plates were placed in a tissue culture incubator (37° C., 5% CO2) overnight. The next day, the media was removed from the cells and the cells were washed twice with Defined Keratinocyte SFM. In a separate 96-well plate, compounds to be tested were serially diluted in Defined Keratinocyte SFM and run in triplicate in 100 μL total volume. To these compound samples were then added 100 μL of human IL-17 at a concentration of 20 ng/mL in Defined Keratinocyte SFM for serum-free assays. 150 μL of the compound/IL-17 mixture was then added to the cells from which the media has previously been removed. The cells were grown for 48 hours in Defined Keratinocyte SFM in a tissue culture incubator (37° C., 5% CO2).
At the end of the incubation, the plates are centrifuged (500×g for 5 minutes at room temperature), and the cell culture media is transferred to polypropylene 96-well plates. The supernatant was used neat in the ELISA. GROα levels are measured with a GROα sandwich ELISA (R+D Systems DuoSet #DY275E), as per the manufacturer's instructions. The ELISA plates were previously coated with mAb 275 (R+D Systems) at 4 μg/mL. GROα is detected using biotinylated goat anti-human GROα (R+D Systems BAF275) at 200 ng/mL using TMB as a substrate. At the end of the ELISA reactions, plates are read at 450 nm on a microplate reader and compared to a standard calibration curve.

[2] = molecular target: T2, recombinant human IL17a (binding to its receptor IL17R) (Homo sapiens, UniProt Q16552); assay: IL-17 competition ELISA I (IL17a coated, IL17R/Fc binding)
T2 construct: purchased R&D Systems 317-ILB (IL17a); 177-IR (IL17R/Fc)
T2 sequence (Q16552 20-155 limits assumed): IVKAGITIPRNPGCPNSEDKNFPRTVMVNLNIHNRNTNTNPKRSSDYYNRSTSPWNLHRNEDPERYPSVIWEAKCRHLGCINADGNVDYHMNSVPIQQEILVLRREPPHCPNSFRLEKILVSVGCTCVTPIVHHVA
Summary of the method: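 Plates coated with 20 nM recombinant human IL17a received compound dilutions and 12 nM IL17R/Fc (final) for 30 min at room temperature. Bound receptor was detected with HRP anti-human Fc and TMB, read at 450 nm. IC50 came from a 4-parameter logistic fit between no-competitor and blank controls.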

[3] = system: IL-17A induced secretion of IL-6 in primary human RASF cells; assay: Inhibition of IL17A induced secretion of IL6 in human rheumatoid arthritis synovial fibroblast (RASF) cells; type: cell-based; settings: Homo sapiens, Fibroblast
Summary of the method: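 Primary RASF cells (passage 2-8) stimulated 20 h at 37 °C with rhIL-17A (30 ng/mL) pre-incubated 1 h with compound (final 0.03-25 μM, 0.25% DMSO). Supernatant IL-6 measured by ELISA, normalized to WST1 viability; triplicates.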

For COC(=O)[C@@H]1CCCCNC(=O)CNC(=O)[C@@H](Cc2ccc(NC(=O)[C@H](Cc3ccccc3F)NC(=O)Cc3ccccc3)cc2)NC(=O)CC2(CCCC2)CC(=O)N1 [Compound 108], which Kd (IL17A) is on record?
The Kd was under 100 nM.

What about the IC50 [1] of the same molecule?
The IC50 was 1000 to 10000 nM.

With COC(=O)[C@H]1CCCCNC(=O)CCCNC(=O)[C@@H](Cc2ccc(NC(=O)[C@H](Cc3ccccc3F)NC(=O)Cc3ccccc3)cc2)NC(=O)CC2(CCCC2)CC(=O)N1 [Compound 107] as the molecule, how does the Kd (IL17A) read?
Its Kd is 100 to 1000 nM.

What about the IC50 [1] of the same molecule?
Its IC50 is over 10000 nM.

With COC(=O)[C@@H]1CCCCNC(=O)CCCNC(=O)[C@@H](Cc2ccc(NC(=O)[C@H](Cc3ccccc3Cl)NC(=O)Cc3ccccc3)cc2)NC(=O)CC2(CCCC2)CC(=O)N1 [Compound 112] as the molecule, how does the Kd (IL17A) read?
Its Kd is under 100 nM.

And the IC50 [1]?
Its IC50 is 1000 to 10000 nM.

With COC(=O)[C@@H]1CCCCNC(=O)CCCNC(=O)[C@@H](Cc2ccc(NC(=O)[C@H](Cc3ccccc3Br)NC(=O)Cc3ccccc3)cc2)NC(=O)CC2(CCCC2)CC(=O)N1 [Compound 120] as the molecule, how does the IC50 [1] read?
The IC50 was 1000 to 10000 nM.

Which IC50 [2] does the source give for O=C1CNC(=O)[C@@H](Cc2ccc(NC(=O)[C@H](Cc3ccccc3Cl)NC(=O)Cc3ccccc3O)cc2)NC(=O)CC2(CCCC2)CC(=O)NCCCCCN1 [Compound 216] here?
Its IC50 is under 100 nM.

What about the Kd (IL17A) of the same molecule?
Its Kd is under 100 nM.

And the IC50 [3]?
Its IC50 is 1000 to 10000 nM.

What does the source list for O=C1CNC(=O)[C@@H](Cc2ccc(NC(=O)[C@H](Cc3ccccc3Cl)NC(=O)c3ccc(F)cc3)cc2)NC(=O)CC2(CCCC2)CC(=O)NCCCCCN1 [Compound 227]?
IC50 [2]: 100 to 1000 nM; Kd (IL17A): < 100 nM; IC50 [3]: 1000 to 10000 nM

Which results are given for O=C1CNC(=O)[C@@H](Cc2ccc(NC(=O)[C@@H](NC(=O)Cc3ccc(O)cc3)C3CCCCC3)cc2)NC(=O)CC2(CCCC2)CC(=O)NCCCCCN1 [Compound 192]?
IC50 [2]: < 100 nM; Kd (IL17A): < 100 nM; IC50 [3]: 1000 to 10000 nM

What does the source list for COC(=O)[C@@H]1CCCCNC(=O)CCCCNC(=O)[C@@H](Cc2ccc(NC(=O)[C@H](Cc3ccccc3F)NC(=O)Cc3ccccc3)cc2)NC(=O)CC2(CCCC2)CC(=O)N1 [Compound 110]?
Kd (IL17A): 100 to 1000 nM; IC50 [1]: > 10000 nM

With O=C1CNC(=O)[C@@H](Cc2ccc(NC(=O)[C@H](Cc3c(F)cccc3F)NC(=O)Cc3ccccc3)cc2)NC(=O)CC2(CCCC2)CC(=O)NCCCCCN1 [Compound 184] as the molecule, how does the Kd (IL17A) read?
The Kd was under 100 nM.

And the IC50 [1]?
The IC50 was 1000 to 10000 nM.

With CC(=O)N[C@@H](Cc1ccccc1Cl)C(=O)Nc1ccc(C[C@H]2NC(=O)CC3(CCCC3)CC(=O)N(CCO)CCCCCNC(=O)CNC2=O)cc1 [Compound 169] as the molecule, how does the IC50 [2] read?
The IC50 was 100 to 1000 nM.

What about the Kd (IL17A) of the same molecule?
Its Kd is under 100 nM.

What about the IC50 [3] of the same molecule?
The IC50 was over 10000 nM.
